In ChEMBL document CHEMBL4680169, “Synthesis and bioevaluation of new vascular-targeting and anti-angiogenic thieno[2,3-d]pyrimidin-4(3H)-ones” (Eur J Med Chem, 2020):
The source made the active and inactive calls. No cut-off for these calls is given here.

Test system: 518A2
Assay: cells
Type: functional, cell-based
Settings: Homo sapiens, 518A2, 72 h
Description: Cytotoxicity against human 518A2 cells assessed as inhibition of cell growth after 72 hrs by MTT assay

SMILES | IC50 [nM]
COc1cc(-c2nc(O)c3c4c(sc3n2)CCCC4)cc(OC)c1OC | 200
COc1cc(-c2nc3sc4c(c3c(=O)[nH]2)CCNC4)cc(Cl)c1OC | 16400
COc1ccc(/C=C\c2cc(OC)c(OC)c(OC)c2)cc1O [COMBRETASTATIN A4] | 20
COc1cc(-c2nc3sc4c(c3c(=O)[nH]2)CCCCC4)cc(Cl)c1OC | 700
CCOC(=O)N1CCc2c(sc3nc(-c4cccnc4)[nH]c(=O)c23)C1 | 80000
O=c1[nH]c(-c2cc(F)cc(F)c2)nc2sc3c(c12)CCCCC3 | > 100000
O=c1[nH]c(-c2cccc(Br)c2)nc2sc3c(c12)CCCCC3 | > 100000
COc1cc(-c2nc3sc4c(c3c(=O)[nH]2)CCNC4)cc(OC)c1OC | > 100000
CCOC(=O)N1CCc2c(sc3nc(-c4cc(OC)c(OC)c(OC)c4)[nH]c(=O)c23)C1 | 200
COc1ccc(-c2nc3sc4c(c3c(=O)[nH]2)CCNC4)cc1 | 3800
COc1cc(-c2nc3sc4c(c3c(=O)[nH]2)CCCCC4)cc(Br)c1OC | 200
N#Cc1cccc(-c2nc3sc4c(c3c(=O)[nH]2)CCCC4)c1 | 300
COc1c(Br)cc(-c2nc3sc4c(c3c(=O)[nH]2)CCCCC4)cc1Br | 400
COc1cc(-c2nc3sc4c(c3c(=O)[nH]2)CCCC4)cc(Cl)c1OC | 400
CCOC(=O)N1CCc2c(sc3nc(-c4cc(Br)c(OC)c(OC)c4)[nH]c(=O)c23)C1 | 500

Test system: not listed separately
Assay: cells
Type: ADME, cell-based
Settings: Homo sapiens, HDFa, 72 h
Description: Cytotoxicity against human HDfa cells assessed as inhibition of cell growth after 72 hrs by MTT assay

SMILES | IC50 [nM]
COc1cc(-c2nc(O)c3c4c(sc3n2)CCCC4)cc(OC)c1OC | > 100000
COc1ccc(/C=C\c2cc(OC)c(OC)c(OC)c2)cc1O [COMBRETASTATIN A4] | > 100000

Test system: Chorioallantoic membrane
Assay: Vascular disruptive effect in chicken fertilized egg chorioallantoic membrane at 5 nmol incubated for 24 hrs by CAM assay
Type: functional, tissue-based
Settings: Gallus gallus

SMILES | Activity
COc1ccc(/C=C\c2cc(OC)c(OC)c(OC)c2)cc1O [COMBRETASTATIN A4] | Active

Test system: KB-V1
Assay: cells
Type: functional, cell-based
Settings: Homo sapiens, KB-V1, 72 h
Description: Cytotoxicity against multidrug resistant human KB-V1 cells assessed as inhibition of cell growth after 72 hrs by MTT assay

SMILES | IC50 [nM]
COc1cc(-c2nc(O)c3c4c(sc3n2)CCCC4)cc(OC)c1OC | 200
COc1cc(-c2nc3sc4c(c3c(=O)[nH]2)CCNC4)cc(Cl)c1OC | 17000
COc1ccc(/C=C\c2cc(OC)c(OC)c(OC)c2)cc1O [COMBRETASTATIN A4] | 4
COc1cc(-c2nc3sc4c(c3c(=O)[nH]2)CCCCC4)cc(Cl)c1OC | 700
CCOC(=O)N1CCc2c(sc3nc(-c4cccnc4)[nH]c(=O)c23)C1 | 35200
O=c1[nH]c(-c2cc(F)cc(F)c2)nc2sc3c(c12)CCCCC3 | > 100000
O=c1[nH]c(-c2cccc(Br)c2)nc2sc3c(c12)CCCCC3 | > 100000
COc1cc(-c2nc3sc4c(c3c(=O)[nH]2)CCNC4)cc(OC)c1OC | > 100000
CCOC(=O)N1CCc2c(sc3nc(-c4cc(OC)c(OC)c(OC)c4)[nH]c(=O)c23)C1 | 800
COc1ccc(-c2nc3sc4c(c3c(=O)[nH]2)CCNC4)cc1 | 6700
COc1cc(-c2nc3sc4c(c3c(=O)[nH]2)CCCCC4)cc(Br)c1OC | 300
N#Cc1cccc(-c2nc3sc4c(c3c(=O)[nH]2)CCCC4)c1 | 1900
COc1c(Br)cc(-c2nc3sc4c(c3c(=O)[nH]2)CCCCC4)cc1Br | 1400
COc1cc(-c2nc3sc4c(c3c(=O)[nH]2)CCCC4)cc(Cl)c1OC | 300
CCOC(=O)N1CCc2c(sc3nc(-c4cc(Br)c(OC)c(OC)c4)[nH]c(=O)c23)C1 | 300

Test system: EA.hy 926
Assay: Cell cycle arrest in human EA.hy926 cells assessed as accumulation at sub-G1 phase after 24 hrs by propidium iodide staining based flow cytometric analysis
Type: functional
Settings: not given

SMILES | Activity
COc1ccc(/C=C\c2cc(OC)c(OC)c(OC)c2)cc1O [COMBRETASTATIN A4] | Dose-dependent effect

Test system: EA.hy 926
Assay: cells
Type: functional, cell-based
Settings: Homo sapiens, EA.hy 926, 72 h
Description: Cytotoxicity against human EA.hy 926 cells assessed as inhibition of cell growth after 72 hrs by MTT assay

SMILES | IC50 [nM]
COc1cc(-c2nc(O)c3c4c(sc3n2)CCCC4)cc(OC)c1OC | 400
COc1cc(-c2nc3sc4c(c3c(=O)[nH]2)CCNC4)cc(Cl)c1OC | 6300
COc1ccc(/C=C\c2cc(OC)c(OC)c(OC)c2)cc1O [COMBRETASTATIN A4] | 10
COc1cc(-c2nc3sc4c(c3c(=O)[nH]2)CCCCC4)cc(Cl)c1OC | 200
CCOC(=O)N1CCc2c(sc3nc(-c4cccnc4)[nH]c(=O)c23)C1 | 100000
O=c1[nH]c(-c2cc(F)cc(F)c2)nc2sc3c(c12)CCCCC3 | > 100000
O=c1[nH]c(-c2cccc(Br)c2)nc2sc3c(c12)CCCCC3 | > 100000
COc1cc(-c2nc3sc4c(c3c(=O)[nH]2)CCNC4)cc(OC)c1OC | 100000
CCOC(=O)N1CCc2c(sc3nc(-c4cc(OC)c(OC)c(OC)c4)[nH]c(=O)c23)C1 | 200
COc1ccc(-c2nc3sc4c(c3c(=O)[nH]2)CCNC4)cc1 | 3800
COc1cc(-c2nc3sc4c(c3c(=O)[nH]2)CCCCC4)cc(Br)c1OC | 300
N#Cc1cccc(-c2nc3sc4c(c3c(=O)[nH]2)CCCC4)c1 | 1200
COc1c(Br)cc(-c2nc3sc4c(c3c(=O)[nH]2)CCCCC4)cc1Br | 1000
COc1cc(-c2nc3sc4c(c3c(=O)[nH]2)CCCC4)cc(Cl)c1OC | 400
CCOC(=O)N1CCc2c(sc3nc(-c4cc(Br)c(OC)c(OC)c4)[nH]c(=O)c23)C1 | 200

Test system: EA.hy 926
Assay: Induction of F-actin cytoskeleton disruption in human EA.hy926 cells at 50 nM assessed as formation of actin stress fibers measured after 3 hrs by DAPI staining based fluorescence microscopic analysis
Type: cell-based
Settings: not given

SMILES | Activity
COc1cc(-c2nc(O)c3c4c(sc3n2)CCCC4)cc(OC)c1OC | inactive
COc1ccc(/C=C\c2cc(OC)c(OC)c(OC)c2)cc1O [COMBRETASTATIN A4] | Active

Biological target: T1, Tubulin (Homo sapiens) (UniProt P68371+Q9H4B7+P0DPH7+P68366+Q13509+Q71U36+P04350+Q3ZCM7+P07437+P68363+Q9BQE3+Q6PEY2+Q13885+Q9BVA1+Q9BUF5)
Assay: Induction of microtubule cytoskeleton disruption in human EA.hy926 cells at 50 nM assessed as mitotic catastrophe measured after 24 hrs by DAPI staining based fluorescence microscopic analysis
Type: cell-based
Settings: EA.hy 926

SMILES | Activity
COc1cc(-c2nc(O)c3c4c(sc3n2)CCCC4)cc(OC)c1OC | Active

Test system: HCT-116
Assay: cells
Type: functional, cell-based
Settings: Homo sapiens, HCT-116, 72 h
Description: Cytotoxicity against wild type human HCT-116 cells assessed as inhibition of cell growth after 72 hrs by MTT assay

SMILES | IC50 [nM]
COc1cc(-c2nc(O)c3c4c(sc3n2)CCCC4)cc(OC)c1OC | 5500
COc1cc(-c2nc3sc4c(c3c(=O)[nH]2)CCNC4)cc(Cl)c1OC | > 100000
COc1ccc(/C=C\c2cc(OC)c(OC)c(OC)c2)cc1O [COMBRETASTATIN A4] | 3
COc1cc(-c2nc3sc4c(c3c(=O)[nH]2)CCCCC4)cc(Cl)c1OC | 300
CCOC(=O)N1CCc2c(sc3nc(-c4cccnc4)[nH]c(=O)c23)C1 | 32500
O=c1[nH]c(-c2cc(F)cc(F)c2)nc2sc3c(c12)CCCCC3 | > 100000
O=c1[nH]c(-c2cccc(Br)c2)nc2sc3c(c12)CCCCC3 | > 100000
COc1cc(-c2nc3sc4c(c3c(=O)[nH]2)CCNC4)cc(OC)c1OC | > 100000
CCOC(=O)N1CCc2c(sc3nc(-c4cc(OC)c(OC)c(OC)c4)[nH]c(=O)c23)C1 | 600
COc1ccc(-c2nc3sc4c(c3c(=O)[nH]2)CCNC4)cc1 | 4000
COc1cc(-c2nc3sc4c(c3c(=O)[nH]2)CCCCC4)cc(Br)c1OC | 800
N#Cc1cccc(-c2nc3sc4c(c3c(=O)[nH]2)CCCC4)c1 | 700
COc1c(Br)cc(-c2nc3sc4c(c3c(=O)[nH]2)CCCCC4)cc1Br | 900
COc1cc(-c2nc3sc4c(c3c(=O)[nH]2)CCCC4)cc(Cl)c1OC | 500
CCOC(=O)N1CCc2c(sc3nc(-c4cc(Br)c(OC)c(OC)c4)[nH]c(=O)c23)C1 | 400

Biological target: T1, Tubulin (Homo sapiens)
Assay: Induction of microtubule cytoskeleton disruption in human EA.hy926 cells at 25 nM measured after 24 hrs by DAPI staining based fluorescence microscopic analysis
Type: cell-based
Settings: EA.hy 926

SMILES | Activity
COc1cc(-c2nc(O)c3c4c(sc3n2)CCCC4)cc(OC)c1OC | inactive
COc1ccc(/C=C\c2cc(OC)c(OC)c(OC)c2)cc1O [COMBRETASTATIN A4] | Active

Test system: HCT-116
Assay: cells
Type: functional, cell-based
Settings: Homo sapiens, HCT-116, 72 h
Remark: another data set of the same source
Description: Cytotoxicity against human HCT-116 p53 mutant cells assessed as inhibition of cell growth after 72 hrs by MTT assay

SMILES | IC50 [nM]
COc1cc(-c2nc(O)c3c4c(sc3n2)CCCC4)cc(OC)c1OC | 300
COc1cc(-c2nc3sc4c(c3c(=O)[nH]2)CCNC4)cc(Cl)c1OC | 10800
COc1ccc(/C=C\c2cc(OC)c(OC)c(OC)c2)cc1O [COMBRETASTATIN A4] | 2
COc1cc(-c2nc3sc4c(c3c(=O)[nH]2)CCCCC4)cc(Cl)c1OC | 800
CCOC(=O)N1CCc2c(sc3nc(-c4cccnc4)[nH]c(=O)c23)C1 | 39100
O=c1[nH]c(-c2cc(F)cc(F)c2)nc2sc3c(c12)CCCCC3 | > 100000
O=c1[nH]c(-c2cccc(Br)c2)nc2sc3c(c12)CCCCC3 | > 100000
COc1cc(-c2nc3sc4c(c3c(=O)[nH]2)CCNC4)cc(OC)c1OC | > 100000
CCOC(=O)N1CCc2c(sc3nc(-c4cc(OC)c(OC)c(OC)c4)[nH]c(=O)c23)C1 | 500
COc1ccc(-c2nc3sc4c(c3c(=O)[nH]2)CCNC4)cc1 | 2200
COc1cc(-c2nc3sc4c(c3c(=O)[nH]2)CCCCC4)cc(Br)c1OC | 300
N#Cc1cccc(-c2nc3sc4c(c3c(=O)[nH]2)CCCC4)c1 | 200
COc1c(Br)cc(-c2nc3sc4c(c3c(=O)[nH]2)CCCCC4)cc1Br | 1000
COc1cc(-c2nc3sc4c(c3c(=O)[nH]2)CCCC4)cc(Cl)c1OC | 1000
CCOC(=O)N1CCc2c(sc3nc(-c4cc(Br)c(OC)c(OC)c4)[nH]c(=O)c23)C1 | 500
